Test results reported in patent US20110251219A1, “TREATMENT FOR GLOMERULONEPHRITIS WITH 2-[4-(7-ETHYL-5H-PYRROLO[2,3-B]PYRAZIN-6-YL)PHENYL]PROPAN-2-OL” (SANOFI, priority 2008, published 2011).
Several values for one entry are separate records, joined by “and”; a condition that tells them apart may be missing. Equal entries are not always repeated.

Columns and labels:
[1] = system: glomerulonephritis induced by a 30 microgram intravenous injection of clone a84 (IgG2a); assay: a84 antibody-induced glomerulonephritis animal model, urinary protein levels; format: in vivo, Rat, WKY; details: for % Inhibition of Total Urinary Protein Levels (mg), individual animal / % Inhibition of Total Urinary Protein Levels (mg), Mean: 30 ug a84 antibody iv; for % Inhibition of Total Urinary Protein Levels (mg), Mean: urine day 6-7 (16 h), male WKY rats, group mean
Text: Study Objective: Glomerulonephritis is a complex disease involving cytokines, cell infiltration, cell proliferation, and rapid deterioration of renal function. This animal model will provide a relatively short term and quantitative measurement of glomerulonephritis. This study was designed to determine if a compound of Formula I will reduce glomerulonephritis induced by a 30 microgram intravenous injection of clone a84 (IgG2a). This monoclonal antibody induces disease by binding to a glomerular basement membrane protein. Disease progression is monitored in two ways in this model. First, the levels of protein in excreted urine are assessed. This readout serves as a rapid marker of renal diseased. The second mechanism by which disease is monitored is by examining the substructure of the kidney via histological examination.
Aim of Study: Glomerulonephritis is a complex disease involving cytokines, cell infiltration, cell proliferation, and rapid deterioration of renal function. This animal model provided a relatively short term and quantitative measurement of glomerulonephritis. This study was designed to determine if the compound of Formula I as hydrochloride salt will reduce glomerulonephritis induced by a 30 microgram intravenous injection of clone a84 (IgG2a).
Species, Strain, Supplier: Rat, WKY, Charles River
Duration and Frequency of Treatment: Animals in groups B through F and H through L received a 30 ug iv injection of a84 antibody on day 0 approximately 1 hour post dose.
Route of Administration: Oral gavage
Duration and Frequency of Treatment: Each animal in groups C, D, and E received an A.M. and P.M. dose approximately 8 hours apart from day 0 through day 6. Each animal in groups I, J, and K received an A.M. and P.M. dose approximately 8 hours apart from day 0 through day 3. Dosing was initiated on day 0 approximately 1 hour prior to a84 antibody injection.
Route of Administration: intraperitoneal (ip)
Duration and Frequency of Treatment: Each animal in groups F and L received an A.M. dose on day 0 approximately 1 hour prior to a84 antibody injection and a PM dose on day 3.
Kit: Rat Urinary Protein Assay Kit
Study Parameters Rat urinary proteins was measured over approximately a 16 hour period from day 6 to day 7. The kidneys were harvested for histological evaluation and for possible mRNA isolation.
Evaluation Method: Rat urinary protein levels was determined by the kit described in section 2.3.
Chronology of Examinations and/or Sampling: 1) Rats were placed into six groups of eight, six groups of 4, and one group of 3 based on compound and dose administered: Group A Vehicle (0.5% methyl cellulose containing 0.2% tween 80)+IV saline injection n=8, Group B Vehicle (0.5% methyl cellulose containing 0.2% tween 80)+IV a84 antibody injection n=8, Group C Compound of Formula I as hydrochloride salt 3.0 mg/kg+IV a84 antibody injection n=8, Group D SAR397769A 10 mg/kg+IV a84 antibody injection n=8, Group E Compound of Formula I as hydrochloride salt 30 mg/kg+IV a84 antibody injection n=8, Group F Enbrel 5.0 mg/kg+IV a84 antibody injection, Group G Vehicle (0.5% methyl cellulose containing 0.2% tween 80)+IV saline injection n=4, Group H Vehicle (0.5% methyl cellulose containing 0.2% tween 80)+IV a84 antibody injection n=4, Group I Compound of Formula I as hydrochloride salt 3.0 mg/kg+IV a84 antibody injection n=4, Group J SAR397769A 10 mg/kg+IV a84 antibody injection n=4, Group K Compound of Formula I as hydrochloride salt 30 mg/kg+IV a84 antibody injection n=4, Group L Enbrel 5.0 mg/kg+IV a84 antibody injection n=4, and Group M Naïve n=3. 2) On day 0, rats were dosed one hour prior to a84 antibody injection. Animals in groups A through E, and G through K were dosed orally. Dosing continued twice daily in groups A through E from day 0 to day 6 with approximately 8 hours between doses. Dosing continued twice daily in groups G through K from day 0 to day 3 with approximately 8 hours between doses. […]

Syk kinase = Syk kinase (Homo sapiens, UniProt P43405); details: as described in WO2008/033798; cited from earlier work

In the case of `CCc1c(-c2ccc(C(C)(C)O)cc2)[nH]c2nccnc12` [Exp Cmpd, 2-[4-(7-Ethyl-5H-pyrrolo [2,3-b]pyrazin-6-yl)-phenyl]-propan-2-ol], the “% Inhibition of Total Urinary Protein Levels (mg), individual animal” value (from here on “% Inhibition … individual animal”) ([1]; 3.0 mg/kg oral gavage twice daily day 0-6, single animals 1-8) is reported as −0.60% and 9.50% and −5.97% and 54.11% and 43.80% and 42.33% and 65.58% and −3.63%, the “% Inhibition of Total Urinary Protein Levels (mg), Mean” value (“% Inhibition … Mean” below) ([1]; 3.0 mg/kg oral gavage twice daily day 0-6) is reported as 25.64% and the “% Inhibition … Mean” value ([1]; 3.0 mg/kg oral gavage twice daily day 0-6, listed as compound of Formula I) is reported as 25%. The “% Inhibition … individual animal” value ([1]; 10 mg/kg oral gavage twice daily day 0-6, single animals 1-8) was 46.17% and 64.93% and 71.77% and 76.96% and 81.22% and 43.56% and 35.61% and 11.63%, the “% Inhibition … Mean” value ([1]; 10 mg/kg oral gavage twice daily day 0-6) was 53.98% and the “% Inhibition … Mean” value ([1]; 10 mg/kg oral gavage twice daily day 0-6, listed as compound of Formula I) was 53%. The “% Inhibition … individual animal” value ([1]; 30 mg/kg oral gavage twice daily day 0-6, single animals 1-8) was 84.66% and 85.65% and 79.73% and 86.92% and 88.28% and 84.82% and 81.26% and 92.32%, the “% Inhibition … Mean” value ([1]; 30 mg/kg oral gavage twice daily day 0-6) was 85.46% and the “% Inhibition … Mean” value ([1]; 30 mg/kg oral gavage twice daily day 0-6, listed as compound of Formula I) was 85%. The “reduction of urinary protein levels compared with positive control (Enbrel)” value ([1]; 30 mg/kg versus Enbrel 5.0 mg/kg) was “significantly better than the positive control” and the Syk kinase inhibition (Syk kinase) was “Syk kinase inhibitor”.
With Enbrel [reference compound] the “% Inhibition … individual animal” value ([1]; 5.0 mg/kg ip on day 0 and day 3, single animals 1-7) was 50.26% and 33.67% and 61.10% and 46.54% and 58.91% and 63.92% and 22.67% and the “% Inhibition … Mean” value ([1]; 5.0 mg/kg ip on day 0 and day 3) was 48.15%.
